From patent US5266566A, “Method of treating fungal infections using sterodial ester compounds” (British Technology Group Limited, priority 1989, dated 1993) come the findings set out here.

Values after ≈ are worked out from the molar mass of the structure shown. “Also recorded” adds a separate entry of the source. Like-named read-outs stand apart in the source and are kept apart here.

What all share (assay): Disc diffusion antifungal test (zones of inhibition, approximate MIC)
Common to all, as to format: cell-based
(In agar diffusion tests the substance spreads into inoculated agar from a disc or well.)

For experiment [1], the system named is Microsporum audonii NCPF 638. To be noted: for MIC: Microsporum. Here is the method:
(§1) Candida albicans NCYC 597; Trichophyton mentagrophytes NCPF 224 and Microsporum audonii NCPF 638 were used throughout as test organisms. These are open deposits at the National Collection of Yeast Cultures, Norwich UK and the National Collection of Pathogenic Fungi of the Commonwealth Mycological Institute, Kew UK.
(§2) All organisms were maintained in a nutrient broth containing (gl^-1): Lab Lemco (Oxoid), 5; Peptone (Oxoid), 5; NaCl, 10. Cultures for testing antimicrobial activity were grown in this medium for 18 h prior to use. Solidified media were prepared by the addition of Agar (Oxoid No. 3) 1.5% w/v.
(§3) Antifungal activity was estimated using solutions of the compound (as the free acid) in dimethyl sulphoxide. A range of concentrations was used for each compound to permit calculation of an approximate MIC. 13 mm discs (Whatman) were soaked in a solution of the appropriate dilution, either allowed to dry, or placed directly onto the surface of nutrient agar plates seeded with the required test organism.
(§4) After 24 h incubation the diameters of zones of inhibition were measured. After a further 24 h incubation, the plates were re-examined and zones re-measured. The compounds were tested in three groups.

Experiment [2] deals with Trichophyton mentagrophytes NCPF 224. As for the experimental part: as §1, §2, §3, §4
The subject of experiment [3] is Candida albicans NCYC 597. The note with it: for MIC: Candida albicans; for Activity against Candida albicans (in words): result in words. As for the experimental part:
as §1, §2, §3, §4

Where [4] appears, read: NCPF638, read-out: MIC Microsporum audonii, Table 2, Group 2 tests.
Where [5] appears, read: NCPF224, read-out: MIC Trichophyton mentagrophytes, Table 2, Group 2 tests.
[6] abbreviates: NCPF638, Table 1, Group 1 tests, read-out: MIC M. aud.
[7] abbreviates: NCYC597, Table 1, Group 1 tests, read-out: MIC C. albicans.
[8] abbreviates: NCPF638, Table 2, Group 2 tests, read-out: MIC Microsporum audonii.
Where [9] appears, read: NCPF224, Table 2, Group 2 tests, read-out: MIC Trichophyton mentagrophytes.
[10] abbreviates: NCPF638, Table 3, Group 3 tests, read-out: MIC M. aud.
[11] abbreviates: NCPF224, Table 1, Group 1 tests, read-out: MIC T. ment.
Setting [12] is: NCPF224, Table 3, Group 3 tests, read-out: MIC T. ment.
[13] abbreviates: NCYC597, read-out: MIC C. albicans, Table 1, Group 1 tests.
Where [14] appears, read: NCYC597, read-out: MIC C. albicans, Table 3, Group 3 tests.
Setting [15] is: NCYC597, read-out: MIC Candida albicans, Table 2, Group 2 tests.
The mark [16] stands for this setting: NCPF638, read-out: MIC M. aud., Table 1, Group 1 tests.
The mark [17] stands for this setting: NCPF224, read-out: MIC T. ment., Table 1, Group 1 tests.

Broadly, the MIC is the lowest concentration found to suppress growth. As for `COC(=O)CC[C@@H](C)[C@H]1CC[C@H]2[C@@H]3CC[C@@H]4C[C@H](O)CC[C@]4(C)[C@H]3CC[C@]12C` [Methyl lithocholate, methyl lithocholate], the minimum inhibitory concentration (MIC) came out at 950 µg/mL (≈ 2430 µM) in experiment [1] (setting [4]) and 1000 µg/mL (≈ 2560 µM) in experiment [2] (setting [5]).
`C[C@H](CCC(=O)O)[C@H]1CC[C@H]2[C@@H]3CC[C@@H]4C[C@H](O)CC[C@]4(C)[C@H]3CC[C@]12C` [Lithocholic acid, reference compound]: the minimum inhibitory concentration (MIC) came out at 100 µg/mL (≈ 266 µM) in experiment [1] (setting [6]) and 410 µg/mL (≈ 1090 µM) in experiment [3] (setting [7]).
For the molecule `CCCCOC(=O)CC[C@@H](C)[C@H]1CC[C@H]2[C@@H]3CC[C@@H]4C[C@H](O)CC[C@]4(C)[C@H]3C[C@H](O)[C@]12C` [Butyl deoxycholate, n-butyl deoxycholate], the MIC in experiment [1] (setting [8]) was 875 µg/mL (≈ 1950 µM); in experiment [2] (setting [9]), 850 µg/mL (≈ 1890 µM).
On the same counts, the results for `CCCCOC(=O)CC[C@@H](C)[C@H]1CC[C@H]2[C@@H]3CC[C@@H]4C[C@H](O)CC[C@]4(C)[C@H]3CC[C@]12C` [Butyl lithocholate, n-butyl lithocholate] are 900 µg/mL (≈ 2080 µM) and 1100 µg/mL (≈ 2540 µM).
As for `COC(=O)CC[C@@H](C)[C@H]1CC[C@H]2[C@@H]3CC[C@@H]4C[C@H](O)CC[C@]4(C)[C@H]3C[C@H](O)[C@]12C` [Methyl deoxycholate, methyl deoxycholate], the MIC in experiment [1] (setting [6]) came to 520 µg/mL (≈ 1280 µM); in experiment [1] (setting [8]), 200 µg/mL (≈ 492 µM); in experiment [1] (setting [10]) it was 450 µg/mL (≈ 1110 µM); in experiment [2] (setting [11]), 900 µg/mL (≈ 2210 µM); in experiment [2] (setting [9]), 250 µg/mL (≈ 615 µM); in experiment [2] (setting [12]), 500 µg/mL (≈ 1230 µM). For the same molecule, the MIC stood at 20 µg/mL (≈ 49.2 µM) in experiment [3] (setting [7]); 31 µg/mL (≈ 76.2 µM) in experiment [3] (NCYC597, Table 2, Group 2 tests, read-out: MIC Candida albicans); 28 µg/mL (≈ 68.9 µM) in experiment [3] (NCYC597, Table 3, Group 3 tests, read-out: MIC C. albicans). For the same molecule, the “Homogeneity of effect in the zone of inhibition” value in experiment [3] (Group 2 tests, many resistant colonies in the zone) is “not homogeneous”. For the same molecule, the “Activity against Candida albicans (in words)” value in experiment [3] was “highly effective; also recorded: outstanding”.
For `CCCCOC(=O)CC[C@@H](C)[C@H]1CC[C@H]2[C@@H]3[C@H](O)C[C@@H]4C[C@H](O)CC[C@]4(C)[C@H]3CC[C@]12C` [Butyl chenodeoxycholate, n-butyl chenodeoxycholate], the minimum inhibitory concentration (MIC) in experiment [1] (setting [10]) came out at 1000 µg/mL (≈ 2230 µM); in experiment [2] (setting [12]), 1500 µg/mL (≈ 3340 µM). For the same molecule, the “MIC C. albicans” value in experiment [3] (Table 3, Group 3 tests) is “no effect”.
As for `C[C@H](CCC(=O)O)[C@H]1CC[C@H]2[C@@H]3CC[C@@H]4C[C@H](O)CC[C@]4(C)[C@H]3C[C@H](O)[C@]12C` [Deoxycholic acid, reference compound], the MIC in experiment [1] (setting [6]) is 30 µg/mL (≈ 76.4 µM); in experiment [1] (setting [8]) it was 35 µg/mL (≈ 89.2 µM); in experiment [1] (setting [10]) it was 40 µg/mL (≈ 102 µM); in experiment [2] (setting [11]), 300 µg/mL (≈ 764 µM); in experiment [2] (setting [9]), 310 µg/mL (≈ 790 µM); in experiment [2] (setting [12]), 250 µg/mL (≈ 637 µM). The minimal inhibitory concentration (MIC) came to 2100 µg/mL (≈ 5350 µM) in experiment [3] (setting [13]), 1800 µg/mL (≈ 4590 µM) in experiment [3] (setting [14]) and 2000 µg/mL (≈ 5090 µM) in experiment [3] (setting [15]). Also, in experiment [1] (result in words), the “Activity against Microsporum audonii (in words)” value is given as “very highly effective; also recorded: effective”. In addition, the “Activity against Candida albicans (in words)” value in experiment [3] is “poorer action against Candida”.
Consider `C[C@H](CCC(=O)O)[C@H]1CC[C@H]2[C@@H]3[C@H](O)C[C@@H]4C[C@H](O)CC[C@]4(C)[C@H]3C[C@H](O)[C@]12C` [Cholic acid, reference compound], for which the MIC was 5500 µg/mL (≈ 13500 µM) in experiment [1] (setting [16]); ~5000 µg/mL (≈ 12200 µM) in experiment [1] (setting [4]); 10000 µg/mL (≈ 24500 µM) in experiment [2] (setting [17]); ~10000 µg/mL (≈ 24500 µM) in experiment [2] (setting [5]); 390 µg/mL (≈ 955 µM) in experiment [3] (setting [13]); 405 µg/mL (≈ 991 µM) in experiment [3] (setting [15]).
Take `C[C@H](CCC(=O)O)[C@H]1CC[C@H]2[C@@H]3[C@H](O)C[C@@H]4C[C@H](O)CC[C@]4(C)[C@H]3CC[C@]12C` [Chenodeoxycholic acid, reference compound]: the minimal inhibitory concentration (MIC) in experiment [1] (setting [6]) was determined as 1000 µg/mL (≈ 2550 µM); in experiment [2] (setting [11]), 1300 µg/mL (≈ 3310 µM); in experiment [3] (setting [13]), 140 µg/mL (≈ 357 µM).
With `COC(=O)CC[C@@H](C)[C@H]1CC[C@H]2[C@@H]3[C@H](O)C[C@@H]4C[C@H](O)CC[C@]4(C)[C@H]3C[C@H](O)[C@]12C` [Methyl cholate, methyl cholate], the MIC in experiment [1] (setting [6]) turned out to be 50 µg/mL (≈ 118 µM); in experiment [2] (setting [11]), 80 µg/mL (≈ 189 µM); in experiment [3] (setting [7]), 3500 µg/mL (≈ 8280 µM).
`COC(=O)CC[C@@H](C)[C@H]1CC[C@H]2[C@@H]3[C@H](O)C[C@@H]4C[C@H](O)CC[C@]4(C)[C@H]3CC[C@]12C` [Methyl chenodeoxycholate, methyl chenodeoxycholate]: the MIC in experiment [1] (setting [16]) stood at 30 µg/mL (≈ 73.8 µM); in experiment [1] (NCPF638, read-out: MIC M. aud., Table 3, Group 3 tests), 800 µg/mL (≈ 1970 µM); in experiment [2] (setting [17]), 460 µg/mL (≈ 1130 µM); in experiment [2] (NCPF224, read-out: MIC T. ment., Table 3, Group 3 tests), 1000 µg/mL (≈ 2460 µM); in experiment [3] (setting [13]), 20 µg/mL (≈ 49.2 µM); in experiment [3] (setting [14]) it was 1000 µg/mL (≈ 2460 µM).
